Row | melting point | Structure (SMILES)
1 | 302 °C | NC(C(=O)O)c1ccccc1 (stereo unspecified)
2 | 172 °C | NNc1nncc2ccccc12
3 | 156 °C | NC(=O)CS(=O)(=O)c1ccccc1
4 | 47 °C | CCN(CC)C(=O)c1ccccc1CC(=O)c1ccccc1C
5 | 233 to 234 °C | O=C(O)c1cc2cc(Br)ccc2s1
6 | 137 °C | COc1ccc(C(=CCC(=O)O)C(C)(C)C(=O)O)cc1
7 | 99 to 101 °C | NC(=NO)c1ccccc1OC(F)(F)F
8 | 82 to 83 °C | CC(=O)Nc1ccc(CC#N)cc1
9 | 96 to 98 °C | CC(=O)CSc1ccc(C)cc1
10 | 138 to 139 °C | NCc1cccc2c(Br)cccc12
11 | 15 °C | N[C@@H]1CCc2ccccc21
12 | 23 °C | O=S(=O)(Cl)c1ccccc1C(F)(F)F
13 | 191 to 193 °C | CC(=O)NC(Cc1ccc(Br)cc1)C(=O)O (stereo unspecified)
14 | 222 to 223 °C | O=C(O)c1ccc(CN2CCS(=O)(=O)CC2)cc1
15 | 32 °C | COc1ccc(OC(C)=O)cc1
16 | 28 to 30 °C | CC(=CC(=O)O)C(F)(F)F
17 | 153 to 159 °C | CC(CO)(NC(=O)c1ccccc1)C(=O)O (racemic)
18 | 173 to 176 °C | Cc1onc(-c2c(Cl)cccc2Cl)c1C(N)=S
19 | 180 °C | ON(C=C(Br)c1ccccc1)c1ccccc1
20 | 135 °C | CC(=O)Nc1ccccc1N
21 | 180 to 182 °C | CC(C)(C)OC(=O)N[C@]1(C(=O)O)C[C@@H]1c1ccccc1
22 | 163 °C | NC(=O)c1ccccc1C(F)(F)F
23 | 159 to 161 °C | O=Cc1ccc2[nH]cnc2c1
24 | 119 to 121 °C | COc1ccc(C(N)=NO)cc1
25 | 77 °C | O=C1CC(c2ccccc2)c2ccccc21 (stereo unspecified)
26 | 175 to 177 °C | NC(=S)Nc1ccc(Oc2ccccc2)cc1

Row | melting point | Structure (SMILES)
27 | 93 °C | COC(=O)C#Cc1cccc(C#CC(=O)OC)c1
28 | 15 °C | Cc1ccccc1S
29 | 70 °C | CC(O)c1ccc(N)cc1 (stereo unspecified)
30 | 210 °C | N#CC1=C(N)Oc2c(c(C(F)(F)F)nn2-c2ccccc2)C1c1ccc(Cl)cc1Cl (stereo unspecified)
31 | 64 to 65 °C | Cc1nc(-c2ccc(C(F)(F)F)cc2)sc1CBr
32 | 58 °C | Clc1cccc2cc[nH]c12
33 | 110 to 114 °C | N[C@H](CO)[C@H](O)c1ccccc1
34 | 153 °C | O=C(O)Cc1cc(O)ccc1O
35 | 24.5 °C | CCCCN(C(C)=O)c1ccccc1
36 | 128 to 130 °C | O=[N+]([O-])c1ccc2c(c1)CCN2S(=O)(=O)c1ccccc1
37 | 87 °C | O=C(Cl)c1cc2ccccc2s1
38 | 142 to 143 °C | N#CCN1C(=O)c2ccccc2S1(=O)=O
39 | 49 to 50 °C | OCc1csc2ccccc12
40 | -13 to -12 °C | FC(F)(F)c1cc(Cl)cc(Cl)c1
41 | 138 to 142 °C | O=S1(=O)C=Cc2ccccc21
42 | 216 °C | Cc1ccc(C2(c3ccc(C)o3)C(=O)Nc3ccccc32)o1
43 | 180 to 183 °C | CC1CC(=O)Nc2ccccc2N1 (stereo unspecified)
44 | 140 °C | Oc1c(Br)ccc2cccnc12
45 | 143 °C | CC1(C)C(C(=O)OC(C#N)c2cccc(Oc3ccccc3)c2)C1C(Br)C(Br)(Br)Br (stereo unspecified)
46 | 175 °C | O=C(c1ccccc1O)N1CCOCC1
47 | 114 to 115 °C | c1ccc2c(c1)-c1ccccc1-2
48 | 172 to 176 °C | CC(C)n1c(C(F)(F)F)nc2cc(C(=O)O)ccc21
49 | 189 °C | Cc1cc(-c2ccccc2)n(N)c(=O)c1C#N
50 | 100 °C | CCOc1ccc(NC(=O)CN)cc1
51 | 239 °C | O=C(N=c1sc(C(=O)c2cccs2)nn1-c1ccccc1[N+](=O)[O-])c1ccccc1
52 | 175 °C | O=C(O)c1ccc(C(F)(F)F)c(F)c1

Continued, compound first:

Row | Structure (SMILES) | melting point
53 | CCC1(CC)C(=O)NC(=O)N(C)C1=O | 155 °C
54 | Oc1c(Br)cc(Br)c(Br)c1Br | 114 °C
55 | ClCOCCl | -41.5 °C
56 | COc1ccc(Cl)cc1I | 48 °C
57 | NCCC(=O)N[C@@H](Cc1c[nH]cn1)C(=O)O | 260 °C
58 | COc1cc2oc(=O)cc(CBr)c2cc1OC | 202 °C
59 | O=Nc1c(-c2ccc([N+](=O)[O-])cc2)nc2ncccn12 | 191 °C
60 | CC(C)(OC1CCCCC1)C(=O)O | 75 °C
61 | C#CC1(O)CCC2C3CCC4=C(CCC(=O)C4)C3CCC21C (stereo unspecified) | 170 °C
62 | BrCCI | 28 °C
63 | Cc1nccc(O)c1OCc1ccc(Cl)cc1Cl | 218 to 222 °C
64 | CC(C)(C)c1ccc(S(=O)(=O)NCCBr)cc1 | 76 to 78 °C
65 | C=Cc1c(C)cc(C)cc1C | -37 °C
66 | CCOC(=O)c1c(SC)nn(C(N)=S)c1N | 149 °C
67 | COc1c(C)c(C)c(OC)c(C=O)c1C | 86 °C
68 | C=CC1CC=CCC1 (stereo unspecified) | -109 °C
69 | COc1cc2c(c3oc(=O)c4c(c13)CCOC4=O)C1CCOC1O2 (stereo unspecified) | 237 to 240 °C
70 | Cc1ccc(Cc2c(N)n[nH]c2N)cc1 | 173 to 175 °C
71 | COc1ccc(Br)c(OC)c1C(=O)O | 146 to 148 °C
72 | Cc1ccc2ncoc2c1 | 29 to 31 °C
73 | O=C1CC2(CCCC2)CC(=O)N1 | 153 to 155 °C
74 | O=C1CC2(CCCC2)CC(=O)O1 | 64 to 66 °C
75 | O=S(=O)(Cl)c1cc(Br)c(Cl)s1 | 63 to 65 °C
76 | Clc1ccc(Br)nc1 | 65 to 69 °C
77 | Clc1cc2c(oc3c(Cl)c(Cl)c(Cl)cc32)c(Cl)c1Cl | 240 °C
78 | Nc1ccn(C2OC(COP(=O)(O)O)C(O)C2O)c(=O)n1 (stereo unspecified) | 233 °C
79 | CC(C=CC=C(C)C(=O)O)=CC=CC=C(C)C=CC=C(C)C(=O)O | 286 °C

Row | Structure (SMILES) | melting point
80 | Fc1cc(Br)c(I)c(Br)c1 | 134 to 137 °C
81 | COc1cc(C=C(C)[N+](=O)[O-])cc(OC)c1 | 87 to 89 °C
82 | CCNC1=NC(=O)C(c2ccccc2)O1 (stereo unspecified) | 148 °C
83 | O=C=Nc1ccc(F)cc1[N+](=O)[O-] | 50 to 55 °C
84 | CCN1CC2(COC)C(O)CC(OC)C34C5CC6(O)C(O)C5C(O)(C(O)C6OC)C(C(OC)C23)C14 (stereo unspecified) | 132 °C
85 | COCCCn1c(C(=O)O)cc2c(=O)n(C)c(=O)n(C)c21 | 166 °C
86 | NS(=O)(=O)c1c(F)cc(F)cc1Br | 126 °C
87 | O=C1CCc2cc(Cl)ccc21 | 94 °C
88 | CC(=O)Oc1ccc2cc(OC(C)=O)ccc2c1 | 215 °C
89 | Nc1nc(N)c(N=O)c(N)n1 | 300 °C
90 | CCCCc1ccc(N=Cc2ccc(C=Nc3ccc(CCCC)cc3)cc2)cc1 | 232 °C
91 | Fc1c(F)c(F)c(P(CCP(c2c(F)c(F)c(F)c(F)c2F)c2c(F)c(F)c(F)c(F)c2F)c2c(F)c(F)c(F)c(F)c2F)c(F)c1F | 190 to 195 °C
92 | Cc1ccc([C@@H]2CC(=O)[C@@H](c3ccccc3)[C@H](c3ccc(C)cc3)N2)cc1 | 148 °C
93 | COC(=O)[C@@H]1C[C@@H]2CCCN2[C@@]12C(=O)c1cccc3cccc2c13 | 145 °C
94 | Nc1ccnc(Cl)c1 | 93 °C
95 | Cc1c(C)c2c(c(C)c1O)CCC(C)(C(=O)O)O2 (stereo unspecified) | 189 °C
96 | O=C(O)C(O)(c1ccccc1Cl)c1ccccc1Cl | 162 °C
97 | O=S(=O)(Cl)c1ccc(-c2ccc(F)cc2)cc1 | 82 to 84 °C
98 | N#CC1(c2ccc(Cl)cc2)CC1 | 52 to 56 °C
99 | Cn1c(=O)c(C2=NNC(=O)C2=NNc2ccc(I)cc2)c(O)c2ccccc21 | 262 °C
100 | Cc1cc(C)c(O)c(C)c1C | 80.5 °C
101 | O=C=Nc1ccc(Br)cc1 | 41 °C
102 | O=C(O)c1c2c(nc3ccc(F)cc13)CCCCC2 | 289 to 291 °C
103 | NC(CCP(=O)(O)O)C(=O)O (racemic) | 225 to 228 °C
104 | N#Cc1c(O)ccc([N+](=O)[O-])c1O | 239 to 240 °C
105 | CN(N)c1c(N(C)N)c(=O)c1=O | 201 to 202 °C
106 | CC1(C)CCC(=O)CC1=O | 103 to 105 °C

Row | Structure (SMILES) | melting point
107 | Cc1ccc2oc3c(c2c1)-c1oc(C)cc1C(C)(c1ccccc1)CC3 (stereo unspecified) | 119 °C
108 | Cn1cnc(N)c2ncnc1-2 | 300 °C
109 | Cc1c(C2(c3cc(C(C)C)c(O)c(CN(CC(=O)O)CC(=O)O)c3C)OC(=O)c3ccccc32)cc(C(C)C)c(O)c1CN(CC(=O)O)CC(=O)O | 191 °C
110 | N=C1NC(=O)C(=NNc2ccc(Br)cc2)S1 | 284 °C
111 | O=C(Nc1c(Cl)cc(Cl)cc1Cl)C(F)(F)C(F)(F)C(F)(F)C(F)(F)C(F)(F)C(F)(F)C(F)(F)C(F)(F)F | 115 °C
112 | N#Cc1c(N=[N+]([O-])c2cnn(-c3ccccc3)c2C#N)cnn1-c1ccccc1 | 265 °C
113 | Cc1ccc2c(c1)C(=O)c1ccc(C)cc1C2=O | 240 °C
114 | NCCCCCCNCCCCCCN | 33 °C
115 | O=c1ccc2cc([N+](=O)[O-])ccc2o1 | 190 to 192 °C
116 | CCC(O)CN (stereo unspecified) | 3 °C
117 | Nc1c([N+](=O)[O-])cc(Cl)cc1[N+](=O)[O-] | 147 °C
118 | N#Cc1ccc(O)c(Br)c1 | 158 °C
119 | O=C=Nc1ccc(-c2cccs2)cc1 | 65 to 66 °C
120 | CC(=O)OC1CC2(O)C(CCC3(C)C(c4ccc(=O)oc4)CCC32O)C2(C)CCC(OC3OC(CO)C(O)C(O)C3O)C=C12 (stereo unspecified) | 169 °C
121 | O=Cc1cc2nccnc2s1 | 108 to 109 °C
122 | CCc1c(C)[nH]c2c1C(=O)C(CN1CCOCC1)CC2 (stereo unspecified) | 180 °C
123 | c1ccc(CC2CCCCN2)cc1 (stereo unspecified) | 32 °C
124 | Oc1ccc2cc(Br)ccc2c1Br | 105 to 107 °C
125 | ClC1CCCCC1Cl (stereo unspecified) | -1.5 °C
126 | Nc1ccc(OC2CCOCC2)cc1 | 71 to 73 °C
127 | CC(CO)CO | -91 °C
128 | CCC1(C2CCC(OC)CC2)C(=O)NC(=O)NC1=O (stereo unspecified) | 239 to 240 °C
129 | Nc1cc(Cl)c(Cl)c(Cl)c1Cl | 118 to 119 °C
130 | COC(=O)c1scc(S(=O)(=O)C(C)C)c1S(=O)(=O)Cl | 128 to 129 °C
131 | C=CCCCCCCCCC(=O)OCC | -38 °C
